The record followed here is ChEMBL document CHEMBL1201862, “PubChem BioAssay data set” (2004).

Each structure is given as a SMILES string.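 A five-concentration, 48-hour dose response in 96-well plates underlies each endpoint, interpolated linearly between surrounding concentrations. At the GI50, growth is halved.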 Calls of active or inactive are those of the source. Rule as the data show it: active = GI50 up to about 1.1 µM and inactive = higher.

Among the test systems are DMS-273; HCT-15; LOX IMVI; OVCAR-5; OVCAR-4; ACHN; KM12; A498; OVCAR-8; HOP-62; TK-10; SK-MEL-2; IGROV-1; RXF 393; HOP-92; SK-MEL-28; SK-MEL-5; T47D; DU-145.
Common to all, as to experiment: DTP human tumour cell line panel, 48 h

Usually GI50 stands for the concentration at which growth is held to half of that of the control. Turning to `NC1=NN(c2ccccc2)C(=O)C1/C(=N\NC(=O)c1cc2ccccc2cc1O)C(=O)Nc1ccc(Cl)c(Cl)c1` (stereo not given), the GI50 is 11.6 µM (inactive) with DMS-273; 13.6 µM in the test with HCT-15; 24.5 µM (inactive) in the test with LOX IMVI; 44.6 µM (inactive) in the test on OVCAR-5; 16.3 µM (inactive) with OVCAR-4; 28.3 µM (inactive) in the test on ACHN. The GI50 with KM12 is 43.6 µM (inactive); with A498, 49.8 µM (inactive); in the test on OVCAR-8, 17.3 µM (inactive); with HOP-62, 65.2 µM (inactive); in the test on TK-10 it was 55.6 µM (inactive); in the test with SK-MEL-2, 55.7 µM (inactive). In addition, the GI50 with IGROV-1 is 28.4 µM (inactive); in the test with RXF 393, 49.2 µM (inactive); in the test with HOP-92, 32.7 µM (inactive); with SK-MEL-28 it was 83.4 µM (inactive); in the test with SK-MEL-5, 29.5 µM (inactive).
With `Cc1cccc2nc3cccc(C(=O)NCCN(C)C)c3nc12`, the GI50 was 0.42 µM (active) in the test on DMS-273; 0.442 µM in the test on HCT-15; 0.36 µM (active) with LOX IMVI; 1.61 µM (inactive) in the test with OVCAR-5; 0.83 µM (active) with OVCAR-4; 0.41 µM (active) with ACHN. Further, the GI50 in the test with KM12 is 0.641 µM (active); in the test on A498, 0.266 µM (active); in the test with OVCAR-8, 0.673 µM (active); in the test with HOP-62, 0.247 µM (active); in the test with TK-10, 0.433 µM (active); in the test with SK-MEL-2 it was 1.27 µM (inactive). Further, the GI50 is 0.525 µM (active) in the test with IGROV-1; 1.03 µM (active) with RXF 393; 0.605 µM (active) with HOP-92; 1.01 µM (active) with SK-MEL-28; 0.54 µM (active) with SK-MEL-5.
Consider `COC(=O)C1=C(c2ccc3c(c2)OCO3)O[C@H](c2ccc3c(c2)OCO3)[C@H]1COC(C)=O`, for which the GI50 with DMS-273 was 56.2 µM (inactive); with HCT-15, 53.1 µM; in the test with LOX IMVI it was 48.4 µM (inactive); with OVCAR-5 it was 39.6 µM (inactive); with OVCAR-4, 36.6 µM (inactive); with ACHN, 29.4 µM (inactive). Also, the GI50 in the test with KM12 was 62.4 µM (inactive); in the test on A498, 24.6 µM (inactive); in the test on OVCAR-8, 45.8 µM (inactive); in the test with HOP-62, 58.5 µM (inactive); in the test on TK-10 it was 46.7 µM (inactive); with SK-MEL-2, 63 µM (inactive). Moreover, the GI50 in the test with IGROV-1 was 63.5 µM (inactive); in the test with RXF 393 it was 40 µM (inactive); with HOP-92 it was 30.5 µM (inactive); in the test on SK-MEL-28, 65 µM (inactive); in the test with SK-MEL-5, 24.5 µM (inactive).
With `C[S+](C)C1(c2ccccc2)C(=O)c2ccccc2C1=O`, the GI50 in the test on DMS-273 is > 100 µM (inactive); in the test on HCT-15, above 51.1 µM; in the test on LOX IMVI, 38.9 µM (inactive); with OVCAR-5 it was > 49.3 µM (inactive); with OVCAR-4, > 47.6 µM (inactive); in the test with ACHN it was > 65.6 µM (inactive). The GI50 in the test with KM12 is > 100 µM (inactive); with T47D, 29.4 µM (inactive); with A498, 73.8 µM (inactive); in the test with OVCAR-8 it was > 54.7 µM (inactive); in the test with HOP-62, > 56.9 µM (inactive); in the test with TK-10, > 100 µM (inactive). Moreover, the GI50 in the test on SK-MEL-2 is > 43 µM (inactive); in the test with DU-145 it was > 100 µM (inactive); with IGROV-1 it was > 69.3 µM (inactive); with RXF 393, 33.3 µM (inactive); in the test on HOP-92, > 60.8 µM (inactive); in the test with SK-MEL-28 it was > 100 µM (inactive). In addition, in the test with SK-MEL-5, the GI50 is > 38.5 µM (inactive).
